The values below come from BindingDB's records for patent US20250243186 (Hansoh Bio, 2025).

This test concerns the target T1, Complement factor B [470-764] (UniProt P00751).
T1 construct: 470-764
Description: Factor B Binding Assay by TR-FRET. The procedure:
Table 1: Factor B binding affinity of each compound tested was determined using a time-resolved fluorescence resonance energy transfer (TR-FRET) technology. 10 nM recombinant his-tagged Factor B catalytic domain, varying concentrations of inhibitors, 4 nM LANCE Eu-W1024 Anti-6×His Antibody and 100 nM TR-FRET_tool2 tracer was incubated in 1× Kinase Buffer A for 1 h. Measurement was performed in a reaction volume of 15 μL by adding 5 μL of the test compound, 5 μL of Factor B/antibody mixture and 5 μL of tracer into white opaque 384-well assay plates. The TR-FRET signal was read on a plate reader with an excitation wavelength of 340 nm and detection wavelengths of 615 and 665 nm.
In general terms: In TR-FRET formats the signal depends on donor and acceptor labels being close together.

T1 sequence (P00751 470-764): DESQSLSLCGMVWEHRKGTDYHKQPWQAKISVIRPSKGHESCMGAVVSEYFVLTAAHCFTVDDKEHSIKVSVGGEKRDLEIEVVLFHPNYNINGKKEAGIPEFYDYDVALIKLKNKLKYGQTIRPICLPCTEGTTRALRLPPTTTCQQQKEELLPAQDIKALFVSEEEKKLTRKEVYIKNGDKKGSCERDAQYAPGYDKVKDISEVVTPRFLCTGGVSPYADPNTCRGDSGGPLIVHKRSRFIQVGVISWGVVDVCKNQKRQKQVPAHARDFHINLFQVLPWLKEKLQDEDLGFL

With `COc1cc(C)c2[nH]ccc2c1CN1CC2CCC2C1c1ccc(C(=O)O)cc1` (stereo unspecified) [US20250243186, Example 22], the IC50 (usually the concentration needed to halve the response being measured) turned out to be 45 nM.
